{"source": "paper PMC5355037", "about": "“The repurposed anthelmintic mebendazole in combination with trametinib suppresses refractory NRAS^Q61K melanoma” (Oncotarget, 2017)", "key": {"BRAF": {"target": "BRAF (Homo sapiens, UniProt P15056)", "sequence (P15056 whole entry)": "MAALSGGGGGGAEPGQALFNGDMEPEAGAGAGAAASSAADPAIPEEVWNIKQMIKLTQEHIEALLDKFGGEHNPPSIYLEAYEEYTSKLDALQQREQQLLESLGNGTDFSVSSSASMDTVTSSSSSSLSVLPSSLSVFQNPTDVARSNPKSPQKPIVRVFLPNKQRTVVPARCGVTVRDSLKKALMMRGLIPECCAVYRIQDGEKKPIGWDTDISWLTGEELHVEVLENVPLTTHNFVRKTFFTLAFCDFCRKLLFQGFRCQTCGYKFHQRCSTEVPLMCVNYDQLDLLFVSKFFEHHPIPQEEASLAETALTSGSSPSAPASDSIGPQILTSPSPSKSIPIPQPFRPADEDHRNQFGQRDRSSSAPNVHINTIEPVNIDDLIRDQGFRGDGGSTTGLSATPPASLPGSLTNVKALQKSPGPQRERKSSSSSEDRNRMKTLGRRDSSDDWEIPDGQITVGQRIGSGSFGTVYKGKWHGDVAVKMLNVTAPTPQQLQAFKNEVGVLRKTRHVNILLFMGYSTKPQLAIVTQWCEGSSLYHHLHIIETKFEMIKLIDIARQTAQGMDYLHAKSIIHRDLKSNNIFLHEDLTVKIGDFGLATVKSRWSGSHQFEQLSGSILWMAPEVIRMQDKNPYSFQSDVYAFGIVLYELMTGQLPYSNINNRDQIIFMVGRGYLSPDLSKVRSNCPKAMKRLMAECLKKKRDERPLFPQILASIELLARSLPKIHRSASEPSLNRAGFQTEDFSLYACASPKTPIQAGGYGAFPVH", "assay": "in vitro kinase assay, percent control and binding affinity"}, "BRAF (V600E)": {"target": "BRAF (V600E) (Homo sapiens, UniProt P15056, V600E)", "sequence (P15056 whole entry V600E)": "as the sequence (P15056 whole entry) above, with V600E counted along it", "assay": "in vitro kinase assay, percent control and binding affinity", "details": "Kinase Target BRAF (V600E)"}, "MEK1": {"target": "MEK1 (Homo sapiens, UniProt Q02750)", "sequence (Q02750 whole entry)": "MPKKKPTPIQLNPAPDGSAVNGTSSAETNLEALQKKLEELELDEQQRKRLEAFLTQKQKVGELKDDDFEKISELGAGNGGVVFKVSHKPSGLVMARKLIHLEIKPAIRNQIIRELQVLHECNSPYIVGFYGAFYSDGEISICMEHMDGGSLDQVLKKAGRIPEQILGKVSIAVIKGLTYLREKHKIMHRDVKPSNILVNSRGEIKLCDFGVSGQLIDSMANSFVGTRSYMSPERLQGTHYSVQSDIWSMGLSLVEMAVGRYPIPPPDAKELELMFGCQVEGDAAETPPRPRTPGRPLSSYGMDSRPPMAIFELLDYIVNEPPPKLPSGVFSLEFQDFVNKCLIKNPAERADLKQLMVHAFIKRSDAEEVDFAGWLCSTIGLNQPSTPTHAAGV", "assay": "in vitro kinase assay, percent control", "type": "binding", "details": "Kinase Target MEK1"}, "MEK2": {"target": "MEK2 (Homo sapiens, UniProt P36507)", "sequence (P36507 whole entry)": "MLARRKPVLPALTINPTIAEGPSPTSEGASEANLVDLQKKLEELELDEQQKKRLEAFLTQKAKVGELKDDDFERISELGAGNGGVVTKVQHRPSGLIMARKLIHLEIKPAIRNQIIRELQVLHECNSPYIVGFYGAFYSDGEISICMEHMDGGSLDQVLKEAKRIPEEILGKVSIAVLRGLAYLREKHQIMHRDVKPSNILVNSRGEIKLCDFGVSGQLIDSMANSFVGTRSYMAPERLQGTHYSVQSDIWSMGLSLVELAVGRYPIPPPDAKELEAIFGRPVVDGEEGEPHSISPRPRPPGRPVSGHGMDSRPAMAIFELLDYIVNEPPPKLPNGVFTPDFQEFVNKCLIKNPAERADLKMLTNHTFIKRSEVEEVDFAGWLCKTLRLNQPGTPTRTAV", "assay": "in vitro kinase assay, percent control", "type": "binding", "details": "Kinase Target MEK2"}, "C-RAF": {"target": "C-RAF (Homo sapiens, UniProt P04049)", "sequence (P04049 whole entry)": "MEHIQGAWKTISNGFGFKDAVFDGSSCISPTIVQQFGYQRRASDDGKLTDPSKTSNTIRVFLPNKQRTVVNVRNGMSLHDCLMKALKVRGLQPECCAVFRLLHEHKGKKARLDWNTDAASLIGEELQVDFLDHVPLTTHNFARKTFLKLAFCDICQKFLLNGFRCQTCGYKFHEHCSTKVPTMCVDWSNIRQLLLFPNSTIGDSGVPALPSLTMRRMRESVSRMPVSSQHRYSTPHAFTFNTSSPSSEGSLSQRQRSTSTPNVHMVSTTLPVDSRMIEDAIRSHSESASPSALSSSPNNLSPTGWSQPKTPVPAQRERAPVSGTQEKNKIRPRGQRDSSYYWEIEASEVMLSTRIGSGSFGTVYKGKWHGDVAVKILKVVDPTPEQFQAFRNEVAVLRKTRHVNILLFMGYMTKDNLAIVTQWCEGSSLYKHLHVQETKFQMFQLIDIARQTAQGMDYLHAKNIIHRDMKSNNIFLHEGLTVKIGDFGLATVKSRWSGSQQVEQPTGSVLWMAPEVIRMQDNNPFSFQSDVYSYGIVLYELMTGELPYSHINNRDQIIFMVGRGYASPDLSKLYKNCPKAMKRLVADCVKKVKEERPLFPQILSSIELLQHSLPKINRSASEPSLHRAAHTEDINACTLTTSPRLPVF", "assay": "in vitro kinase assay, percent control", "type": "binding", "details": "Kinase Target C-RAF"}, "VEGFR2": {"target": "VEGFR2 (Homo sapiens, UniProt P35968)", "sequence (P35968 20-1356)": "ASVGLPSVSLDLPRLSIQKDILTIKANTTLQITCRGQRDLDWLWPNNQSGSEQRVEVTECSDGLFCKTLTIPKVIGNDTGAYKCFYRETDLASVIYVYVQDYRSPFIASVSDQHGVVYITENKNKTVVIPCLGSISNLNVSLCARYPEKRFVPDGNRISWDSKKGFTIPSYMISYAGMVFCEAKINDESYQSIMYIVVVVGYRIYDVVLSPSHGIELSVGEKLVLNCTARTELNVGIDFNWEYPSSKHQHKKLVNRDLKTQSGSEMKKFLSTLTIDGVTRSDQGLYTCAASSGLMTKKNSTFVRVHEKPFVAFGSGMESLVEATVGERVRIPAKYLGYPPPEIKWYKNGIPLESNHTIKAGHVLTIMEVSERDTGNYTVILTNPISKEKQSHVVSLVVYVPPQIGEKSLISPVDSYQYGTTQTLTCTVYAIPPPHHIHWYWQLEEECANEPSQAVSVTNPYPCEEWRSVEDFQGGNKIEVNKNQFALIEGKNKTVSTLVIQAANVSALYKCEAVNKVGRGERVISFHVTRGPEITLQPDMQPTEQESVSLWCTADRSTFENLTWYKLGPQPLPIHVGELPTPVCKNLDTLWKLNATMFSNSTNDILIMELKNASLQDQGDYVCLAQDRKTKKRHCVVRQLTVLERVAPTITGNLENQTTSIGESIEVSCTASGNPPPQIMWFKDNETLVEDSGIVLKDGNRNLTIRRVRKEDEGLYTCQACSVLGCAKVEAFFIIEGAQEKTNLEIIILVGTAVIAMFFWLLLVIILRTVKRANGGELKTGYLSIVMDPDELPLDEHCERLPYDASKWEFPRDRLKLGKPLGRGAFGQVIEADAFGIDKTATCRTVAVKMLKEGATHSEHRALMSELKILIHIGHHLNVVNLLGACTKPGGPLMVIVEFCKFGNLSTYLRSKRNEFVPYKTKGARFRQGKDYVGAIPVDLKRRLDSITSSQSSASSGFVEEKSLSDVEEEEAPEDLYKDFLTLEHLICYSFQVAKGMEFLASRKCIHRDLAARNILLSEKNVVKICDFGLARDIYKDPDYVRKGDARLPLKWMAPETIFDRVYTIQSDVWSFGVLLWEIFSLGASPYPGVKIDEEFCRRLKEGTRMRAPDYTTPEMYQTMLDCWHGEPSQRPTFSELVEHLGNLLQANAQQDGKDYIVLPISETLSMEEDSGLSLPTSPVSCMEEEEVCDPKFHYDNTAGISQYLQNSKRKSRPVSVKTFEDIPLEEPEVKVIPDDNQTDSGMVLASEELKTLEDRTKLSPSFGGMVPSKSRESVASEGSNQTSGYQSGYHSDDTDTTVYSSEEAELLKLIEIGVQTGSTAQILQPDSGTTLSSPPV", "assay": "in vitro kinase assay, percent control and binding affinity", "details": "Kinase Target VEGFR2"}, "[1]": {"tested_on": "BAK, BUL and STU melanoma cells", "assay": "XTT cell viability assay, statements for all three lines", "type": "cell-based, human", "details": "72 h; for concentration at which significant growth inhibition was observed: 2-way ANOVA; for cytotoxic activity as single agent (in words): all three cell lines", "method": "MBZ, dabrafenib, and trametinib were purchased from Sigma-Aldrich and ActiveBiochem, respectively. 5 × 10^3 viable cells per well were plated in 96-well dishes and allowed to recover for 12 h prior to drug treatment. Cells in triplicate wells were treated for up to 72 h (based on initial time course experiments showing maximal effects at that time point) with different concentrations of trametinib, dabrafenib, or MBZ alone, or a combination of MBZ and trametinib. Negative controls were exposed to vehicle DMSO in the same volumes. Cell viability was assessed by an XTT assay, according to a manufacturer's specifications (Biotium Inc). Reduced XTT was measured by absorbance at 490 nm on a PerkinElmer Victor3 plate reader. Cells exposed to detergent served as a positive control.\nThe results shown are based on a single experiment in triplicate, and repeated in three independent experiments with essentially the same results. Data from triplicates of treatment groups were compared using Student's t-test or 2-way ANOVA (multiple comparisons) for significance, and p values of < 0.05 were considered statistically significant. For tumor sizes, the rate-based T/C (tumor/control) test of significance was used as described, using the author's template. The results are representative of 3 independent experiments with reproducible results. For determining synergism, the combination index (τ) was calculated from single dose-response curves and combination experiments as τ = xA/XA+xB/XB, in which, for a given cytotoxic effect, xA and xB are the concentrations of drugs A and B in the combination, and XA and XB are the concentrations of drugs A and B that achieve the same cytotoxic effect when given alone. A τ value of 1 indicates additivity, τ less than 1 indicates synergy, and τ greater than 1 indicates antagonism."}, "[2]": {"tested_on": "BAK melanoma cells xenografted into athymic mice", "assay": "mouse xenografting, tumor growth", "type": "in vivo", "details": "gavage; for tumor growth (in words): trametinib 0.1 or 3 mg/kg/qd, alone or combined", "method": "All animal experiments were performed in accordance with the guidelines and approval of Georgetown University Animal Care and Use Committee. Athymic 6-week old male mice (Taconic) were acclimated to the Division of Comparative Medicine at Georgetown University a week prior to xenografting. 3×10^6 melanoma cells were resuspended in Matrigel and injected subcutaneously into the hind flanks of athymic mice using a 22-gauge needle. […] Drugs were administered by oral gavage. Each testing group contained three to five mice in each of four experiments. Each tumor from each treatment group was measured on indicated days, and all tumor sizes were then normalized to their size at day 0 of drug treatment. All data from all four experiments was then combined for statistical analysis, to compare every mouse from each treatment group. […] The results were expressed as the mean (±SD) of tumor volume in each group. After five weeks, mice were euthanized; tumors extracts were derived for immunoblot analysis. […] This yields a similar constant to that calculated by Mosteller for humans: BSA (m^2) = [[…] (kg)]*60 [36]. […] For high dose trametinib, this is equivalent to 14.4 mg/person/day. […] By comparison, patient doses range from 100 mg one time (pinworms) to 200 mg/kg per day for 12 weeks ([…] disease in children) including doses up to 6 g per day. […] The results shown are based on a single experiment in triplicate, and repeated in three independent experiments with essentially the same results. […] For tumor sizes, the rate-based T/C (tumor/control) test of significance was used as described, using the author's template. The results are representative of 3 independent experiments with reproducible results. For determining synergism, the combination index (τ) was calculated from single dose-response curves and combination experiments as τ = xA/XA+xB/XB, in which, for a given cytotoxic effect, xA and xB are the concentrations of drugs A and B in the combination, and XA and XB are the concentrations of drugs A and B that achieve the same cytotoxic effect when given alone."}, "pMEK1/2 S217/221": {"tested_on": "pMEK1/2 S217/221", "assay": "immunoblot analysis of BAK cells", "type": "cell-based, human", "details": "100 nM, combination within 30 min", "method": "(§1) SDS-PAGE and transfer of separated proteins to nitrocellulose membranes were performed according to standard procedures. Membranes were stained with Ponceau S (0.1%) to verify equal loading and transfer of proteins, and then incubated with antibodies specific for pERK1/2 T202/Y204, pMEK1/2 S217/221, pBAD S-112, total BAD, total ERK1/2, total MEK1/2, BCL2 (Santa Cruz Biotech), BCLXL (Santa Cruz Biotech), cleaved PARP (Cell Signaling), or GAPDH (Abcam; loading control). Immune complexes were detected by incubation with appropriate horseradish peroxidase-conjugated antibodies to mouse or rabbit IgG (1:3000) and enhanced chemiluminescence (Pierce, Rockford, IL)."}, "[3]": {"tested_on": "phosphorylation of ERK1/2 (T202/Y204)", "assay": "immunoblot analysis of BAK cells", "type": "cell-based, human", "details": "100 nM, combination undetectable by 30 min", "method": "as §1"}, "[4]": {"tested_on": "MEK1/2 and ERK1/2 phosphorylation", "assay": "immunoblot analysis of tumor xenograft extracts", "type": "in vivo, mice", "details": "tumors collected at termination; combination = HDT+MBZ", "method": "All animal experiments were performed in accordance with the guidelines and approval of Georgetown University Animal Care and Use Committee. Athymic 6-week old male mice (Taconic) were acclimated to the Division of Comparative Medicine at Georgetown University a week prior to xenografting. 3×10^6 melanoma cells were resuspended in Matrigel and injected subcutaneously into the hind flanks of athymic mice using a 22-gauge needle. […] Drugs were administered by oral gavage. Each testing group contained three to five mice in each of four experiments. Each tumor from each treatment group was measured on indicated days, and all tumor sizes were then normalized to their size at day 0 of drug treatment. All data from all four experiments was then combined for statistical analysis, to compare every mouse from each treatment group. […] The results were expressed as the mean (±SD) of tumor volume in each group. After five weeks, mice were euthanized; tumors extracts were derived for immunoblot analysis. SDS-PAGE and transfer of separated proteins to nitrocellulose membranes were performed according to standard procedures. […] Immune complexes were detected by incubation with appropriate horseradish peroxidase-conjugated antibodies to mouse or rabbit IgG (1:3000) and enhanced chemiluminescence (Pierce, Rockford, IL)."}, "VEGFR-2": {"tested_on": "VEGFR-2", "set-up": "method as in PMID 26234515, PMID 22780961, PMID 24135855", "details": "cited from earlier work"}, "PDGFRA": {"tested_on": "PDGFRA", "set-up": "method as in PMID 26234515, PMID 22780961, PMID 24135855", "details": "cited from earlier work"}, "PDGFRB": {"tested_on": "PDGFRB", "set-up": "method as in PMID 26234515, PMID 22780961, PMID 24135855", "details": "cited from earlier work"}, "roundworm tubulin": {"target": "roundworm tubulin", "set-up": "method as in PMID 7388055", "details": "nematode and cestode parasite tubulin; read-out: apparent binding affinity for tubulin; cited from earlier work"}, "human tubulin": {"target": "human tubulin", "set-up": "method as in PMID 7388055", "details": "much lower than for parasite tubulin; cited from earlier work"}, "[5]": {"set-up": "method as in PMID 7094986", "details": "chronic oral MBZ 10 mg/kg/day, cited from earlier work"}, "[6]": {"tested_on": "BAK and BUL melanoma cells", "assay": "apoptosis (fluorometric caspase-3 activity, sub-G1) and cell cycle assays", "type": "cell-based, human", "details": "100 nM, all time points", "source_text": "Cells were collected, fixed in ethanol, stained with propidium iodide (PI) to determine DNA content, and analyzed by flow cytometry (FACStar PLus; BD BioSciences, San Jose, CA).\nCytosolic extracts, derived from pooled floating and attached cells, were subjected to fluorometric caspase-3 activity assays using fluorescent tetrapeptide substrate specific for caspases-3 (Ac-DEVD-aminomethylcoumarin (AMC, Enzo Life Sciences, Ann Arbor, MI) as previously described. Free AMC, generated as a result of cleavage of the aspartate-AMC bond, was monitored over 30 min with a Wallac Victor^3 fluorometer (Perkin-Elmer, Waltham, MA) at excitation and emission wavelengths of 360 and 460 nm, respectively. The emission from each sample was plotted against time, and linear regression analysis of the initial velocity (slope) for each curve yielded the activity."}}}
{"smiles": "COC(=O)Nc1nc2ccc(C(=O)c3ccccc3)cc2[nH]1", "note": "[MBZ, methyl N-[6-(benzoyl)-1H-benzimidazol-2-yl] carbamate]", "values": [{"measurement": "remaining activity at 10 µM", "setting": "BRAF; 10 μM, Kinase Target BRAF", "value": 7.8, "unit": "%"}, {"measurement": "Kd", "setting": "BRAF; Kinase Target BRAF (BRAF^WT)", "value": 230, "unit": "nM"}, {"measurement": "remaining activity at 10 µM", "setting": "BRAF (V600E); 10 μM", "value": 3.2, "unit": "%"}, {"measurement": "Kd", "setting": "BRAF (V600E)", "value": 210, "unit": "nM"}, {"measurement": "remaining activity at 10 µM", "setting": "MEK1", "value": 16, "unit": "%"}, {"measurement": "remaining activity at 10 µM", "setting": "MEK2", "value": 12, "unit": "%"}, {"measurement": "remaining activity at 10 µM", "setting": "C-RAF", "value": 23, "unit": "%"}, {"measurement": "remaining activity at 10 µM", "setting": "VEGFR2", "value": 20, "unit": "%"}, {"measurement": "concentration at which significant growth inhibition was observed", "setting": "[1]", "value": "≥ 10", "unit": "nM"}, {"measurement": "cytotoxic activity as single agent (in words)", "setting": "[1]", "value": "weak cytotoxic activity"}, {"measurement": "Rate-based T/C", "setting": "[2]; MBZ vs Vehicle, MBZ 40 mg/kg/qad", "value": 1.04}, {"measurement": "tumor growth (in words)", "setting": "[2]; MBZ 40 mg/kg/qad", "value": "did not work as a monotherapy"}, {"measurement": "pMEK1/2 S217/221 activating phosphorylation (in words)", "setting": "pMEK1/2 S217/221", "value": "not inhibited"}, {"measurement": "activating phosphorylation of ERK1/2 (T202/Y204) (in words)", "setting": "[3]", "value": "diminished"}, {"measurement": "MEK1/2 and ERK1/2 phosphorylation in tumors (in words)", "setting": "[4]", "value": "ability to suppress"}, {"measurement": "concentration at which MBZ inhibits VEGFR-2", "setting": "VEGFR-2", "value": 3.6, "unit": "µM"}, {"measurement": "concentration at which MBZ inhibits PDGFRA", "setting": "PDGFRA", "value": 820, "unit": "nM"}, {"measurement": "concentration at which MBZ inhibits PDGFRB", "setting": "PDGFRB", "value": 660, "unit": "nM"}, {"measurement": "Kd", "setting": "roundworm tubulin", "value": 19, "unit": "nM"}, {"measurement": "affinity for human tubulin", "setting": "human tubulin", "value": "µM range"}, {"measurement": "peak plasma level, variability between patients", "setting": "[5]", "value": "0.34 to 1.69", "unit": "µM"}, {"measurement": "mean peak plasma level", "setting": "[5]; patients", "value": 470, "unit": "nM"}]}
{"smiles": "CC(C)(C)c1nc(-c2cccc(NS(=O)(=O)c3c(F)cccc3F)c2F)c(-c2ccnc(N)n2)s1", "note": "[dabrafenib]", "values": [{"measurement": "concentration at which significant growth inhibition was observed", "setting": "[1]", "value": "≥ 1000", "unit": "nM"}, {"measurement": "cytotoxic activity as single agent (in words)", "setting": "[1]", "value": "resistance to dabrafenib except at the highest doses tested"}]}
{"smiles": "CC(=O)Nc1cccc(-n2c(=O)n(C3CC3)c(=O)c3c(Nc4ccc(I)cc4F)n(C)c(=O)c(C)c32)c1", "note": "[trametinib]", "values": [{"measurement": "concentration at which significant growth inhibition was observed", "setting": "[1]", "value": "≥ 1", "unit": "nM"}, {"measurement": "Rate-based T/C", "setting": "[2]; HDT vs Vehicle, high dose trametinib 3 mg/kg/qd", "value": 0.73}, {"measurement": "Rate-based T/C", "setting": "[2]; LDT vs Vehicle, low dose trametinib 0.1 mg/kg/qd", "value": 0.93}, {"measurement": "tumor growth (in words)", "setting": "[2]; MBZ 40 mg/kg/qad", "value": "did not show any significant tumor-suppressive effects"}, {"measurement": "percentage of cells in S phase (in words)", "setting": "[6]", "value": "decreased"}, {"measurement": "pMEK1/2 S217/221 activating phosphorylation (in words)", "setting": "pMEK1/2 S217/221", "value": "not inhibited"}, {"measurement": "activating phosphorylation of ERK1/2 (T202/Y204) (in words)", "setting": "[3]", "value": "diminished"}, {"measurement": "MEK1/2 and ERK1/2 phosphorylation in tumors (in words)", "setting": "[4]", "value": "ability to suppress"}]}
